Test results reported in patent US20220168430A1, “THERAPEUTIC METHODS FOR TREATING HEPATITIS B” (priority 2019, published 2022).
Where two headings read alike, the source gives them in different places.

System: HBV rcDNA
Test: Dual agent combination in HepDE19 cells, rcDNA by Quantigene 2.0 bDNA assay (Examples 5-8)
Assay type: cell-based, HBV; HepDE19 (HepG2 human hepatocarcinoma derived)
Settings: Hepatitis B virus; for inhibition at 0.005 µM: Compound 1 0.005 μM alone; for inhibition at 0.01 µM: Compound 1 0.010 μM alone; for inhibition at 0.02 µM: Compound 1 0.020 μM alone; for inhibition at 0.039 µM: Compound 1 0.039 μM alone; for inhibition at 0.156 µM: Compound 1 0.156 μM alone
Experimental: In vitro dual agent combination studies were conducted using the method of Prichard and Shipman 1990 (Prichard M N, Shipman C, Jr. 1990. Antiviral Res 14:181-205). The HepDE19 cell culture system is a HepG2 (human hepatocarcinoma) derived cell line that supports HBV DNA replication and cccDNA formation under control the control of a CMV Tet-off promoter system (Guo et al. 2007. J Virol 81:12472-84). HepDE19 (50,000 cells/well) were plated in 96 well collagen-coated tissue-culture treated microtiter plates in DMEM/F12 medium supplemented with 10% fetal bovine serum+1% penicillin-streptomycin with tetracycline (1 μg/mL) and incubated in a humidified incubator at 37° C. and 5% CO2 overnight. Next day, the cells were switched to fresh medium without tetracycline and incubated for 4 hrs at 37° C. and 5% CO2. The cells were switched to fresh medium and treated with inhibitor A and inhibitor B, at concentration range spanning their respective EC50 values. […] The two inhibitors were tested both singly as well as in combinations in a checkerboard fashion such that each concentration of inhibitor A was combined with each concentration of inhibitor B to determine their combination effects on inhibition of rcDNA production. There were four replicates of each concentration combination in each experiment. The plates were incubated for 7 days in a humidified incubator at 37° C. and 5% CO2. The level of rcDNA present in the wells was measured using a Quantigene 2.0 bDNA assay kit (Affymetrix, Santa Clara, Calif.) with HBV specific custom probe set (genotype D ayw) and according to the manufacturer's instructions and read using a luminescence plate reader and the relative luminescence units (RLU) data generated from each well was calculated as % inhibition of the untreated control wells and analyzed using the MacSynergy II program to determine whether the combinations were synergistic, additive or antagonistic using the interpretive guidelines established by Prichard and Shipman (Prichard M N, Shipman C, Jr. 1990. […] Each experiment was repeated at least three times and the averages and standard deviations of individual determinations was calculated to derive the conclusion. Concurrently, in each experiment, the effect of inhibitor combinations on cell viability was assessed using replicate plates in triplicates that were used to determine the ATP content as a measure of cell viability using the Cell-Titer Glo reagent (Promega, Madison, Wis.) as per the manufacturer's instructions.

[1] = HepDE19, Expt 2, read-out: AVERAGE % INHIBITION
[2] = HepDE19, Expt 3 (with ETV), read-out: ADDITIVE INHIBITION
[3] = HepDE19, Expt 3 (with ETV), read-out: AVERAGE % INHIBITION
[4] = HepDE19, Expt 3 (with TDF), read-out: ADDITIVE INHIBITION
[5] = HepDE19, Expt 3 (with TDF), read-out: AVERAGE % INHIBITION

SMILES: Cn1cnc(COC(=O)N[C@H]2CCc3c(C(=O)Nc4ccc(F)c(Cl)c4)ccc(F)c32)n1 [Compound 1]
- inhibition at 0.005 µM [1]: 7.51%
- inhibition at 0.01 µM [1]: 26.3%
- inhibition at 0.02 µM [1]: 40.8%
- inhibition at 0.039 µM [1]: 39.8%
- inhibition at 0.156 µM [1]: 87.4%
- inhibition at 1.25 µM (HepDE19, Expt 2, Compound 1 1.250 μM alone, read-out: AVERAGE % INHIBITION): 98.4%
- inhibition at 0.005 µM [2]: -5.5%
- inhibition at 0.005 µM [3]: -5.5%
- inhibition at 0.01 µM [2]: 6.89%
- inhibition at 0.01 µM [3]: 6.89%
- inhibition at 0.02 µM [2]: 14.2%
- inhibition at 0.02 µM [3]: 14.2%
- inhibition at 0.039 µM [2]: 43.7%
- inhibition at 0.039 µM [3]: 43.7%
- inhibition at 0.156 µM [2]: 80.6%
- inhibition at 0.156 µM [3]: 80.6%
- inhibition at 1.25 µM (HepDE19, Expt 3 (with ETV), Compound 1 1.25 μM alone, read-out: ADDITIVE INHIBITION): 98.1%
- inhibition at 1.25 µM (HepDE19, Expt 3 (with ETV), Compound 1 1.25 μM alone, read-out: AVERAGE % INHIBITION): 98.1%
- inhibition at 0.005 µM [4]: 18.8%
- inhibition at 0.005 µM [5]: 18.8%
- inhibition at 0.01 µM [4]: 27.3%
- inhibition at 0.01 µM [5]: 27.3%
- inhibition at 0.02 µM [4]: 44.5%
- inhibition at 0.02 µM [5]: 44.5%
- inhibition at 0.039 µM [4]: 66.8%
- inhibition at 0.039 µM [5]: 66.8%
- inhibition at 0.156 µM [4]: 83.6%
- inhibition at 0.156 µM [5]: 83.6%
- inhibition at 1.25 µM (HepDE19, Expt 3 (with TDF), Compound 1 1.250 μM alone, read-out: ADDITIVE INHIBITION): 98.8%
- inhibition at 1.25 µM (HepDE19, Expt 3 (with TDF), Compound 1 1.250 μM alone, read-out: AVERAGE % INHIBITION): 98.8%
- inhibition at 0.007 µM (HepDE19, Expt 3, Cmpd 1 0.007 μM alone, read-out: AVERAGE % INHIBITION): 6.78%
- inhibition at 0.067 µM (HepDE19, Expt 3, Cmpd 1 0.067 μM alone): 64.7%
- inhibition at 0.2 µM (HepDE19, Expt 3, Cmpd 1 0.200 μM alone): 92.7%
- inhibition at 0.6 µM (HepDE19, Expt 3, Cmpd 1 0.600 μM alone): 97.4%
- inhibition at 0.007 µM (HepDE19, Expt 3, Compound 1 0.007 μM alone, read-out: AVERAGE % INHIBITION): -51.7%
- inhibition at 0.067 µM (HepDE19, Expt 3, Compound 1 0.067 μM alone): 51.8%
- inhibition at 0.2 µM (HepDE19, Expt 3, Compound 1 0.200 μM alone): 85.5%
- inhibition at 0.6 µM (HepDE19, Expt 3, Compound 1 0.600 μM alone): 94.6%
- inhibition at 0.007 µM (HepDE19, Expt 4, Compound 1 0.007 μM alone, read-out: AVERAGE % INHIBITION): 11.7%
- inhibition at 0.067 µM (HepDE19, Expt 4, Compound 1 0.067 μM alone): 52.8%
- inhibition at 0.2 µM (HepDE19, Expt 4, Compound 1 0.200 μM alone): 90%
- inhibition at 0.6 µM (HepDE19, Expt 4, Compound 1 0.600 μM alone): 96.4%
